According to PMC6481325, “Novel N,N-dialkyl cyanocinnamic acids as monocarboxylate transporter 1 and 4 inhibitors” (Oncotarget, 2019):
Read-outs that look alike come from different tables or passages of the source. One block for each compound: values may come before it.

What was measured:
[1] = system: MCT1 expressing WiDr cells; experiment: Seahorse XFe96 glycolysis stress test (ECAR), WiDr; type: cell-based; details: 30 μM
Description: (§1) In the GST, three parameters namely glycolysis, glycolytic capacity and glycolytic reserve were measured.
(§2) Extracellular acidification rates (ECAR) and oxygen consumption rates (OCR) were recorded in real-time for glycolysis stress test (GST) and mitochondrial stress test (MST), respectively, using Agilent Seahorse XFe96® analyzer.

[2] = system: MCT4 expressing MDA-MB-231 cells; experiment: Seahorse XFe96 glycolysis stress test (ECAR), MDA-MB-231; type: cell-based; details: 30 μM
Description: as §1, §2

[3] = system: MCT1 expressing WiDr cells; experiment: Seahorse XFe96 mitochondrial stress test (OCR), WiDr; type: cell-based; details: 30 μM
Description: as §2

[4] = system: MCT4 expressing MDA-MB-231 cells; experiment: Seahorse XFe96 mitochondrial stress test (OCR), MDA-MB-231; type: cell-based; details: 30 μM
Description: as §2

MCT4 = biological target: T1, MCT4 (Homo sapiens, UniProt O15427); experiment: L-[14C]-lactate uptake study in MCT4 expressing MDA-MB-231 cells; type: cell-based
T1 construct: These cells predominantly express MCT4 as confirmed by Western blot and quantitative PCR analysis; host or cells: MDA-MB-231
T1 sequence (O15427 2-465 limits assumed): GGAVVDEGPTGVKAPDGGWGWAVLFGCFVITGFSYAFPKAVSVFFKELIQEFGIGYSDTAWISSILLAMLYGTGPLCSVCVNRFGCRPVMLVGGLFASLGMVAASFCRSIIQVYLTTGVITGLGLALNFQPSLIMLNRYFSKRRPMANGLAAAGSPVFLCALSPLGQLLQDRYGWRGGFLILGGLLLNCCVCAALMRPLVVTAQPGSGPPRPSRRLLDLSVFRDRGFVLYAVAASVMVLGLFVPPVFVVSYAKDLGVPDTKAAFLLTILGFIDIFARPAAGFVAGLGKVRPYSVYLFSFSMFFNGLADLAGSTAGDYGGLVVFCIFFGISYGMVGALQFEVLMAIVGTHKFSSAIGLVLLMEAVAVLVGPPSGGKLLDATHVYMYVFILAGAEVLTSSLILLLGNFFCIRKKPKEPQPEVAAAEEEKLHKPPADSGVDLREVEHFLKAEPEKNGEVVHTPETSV
T1 sequence (P35613 140-385 partner limits assumed): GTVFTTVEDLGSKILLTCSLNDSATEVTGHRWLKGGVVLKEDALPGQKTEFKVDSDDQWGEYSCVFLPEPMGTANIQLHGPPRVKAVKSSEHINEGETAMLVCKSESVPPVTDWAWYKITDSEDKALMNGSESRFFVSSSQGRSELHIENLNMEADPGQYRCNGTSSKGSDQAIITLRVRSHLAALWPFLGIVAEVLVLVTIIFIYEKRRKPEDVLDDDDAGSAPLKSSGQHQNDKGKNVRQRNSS
Description: In this study, an L-[^14C]-lactate based transport assay was developed by us to quantify MCT4 transport and its inhibition by test compounds. […] For the MCT4 transport assay, the pH of HEPES buffer with L-[^14C]-lactate was adjusted to 7.0 such that lactate influx into the cells was aided by the pH gradient. […] Test compounds were diluted to working concentration in HEPES buffer (140 mM NaCl, 5 mM KCl, 2 mM CaCl2, 2 mM MgCl2, 10 mM HEPES, pH 7.0) containing 3 μM L-[^14C]-lactate (Perkin Elmer) and 2 μM L-lactate. […] HEPES buffer was replaced with 250 μL test solution. After 1 hour, media was replaced with 500 μL ice-cold stop buffer (0.1 mM CHC solution in HBS, pH 7.4) and the plates were placed on ice. Cells were washed twice with ice-cold stop buffer and solubilized using 250 μL of 0.1 M NaOH in 5% Triton-X (Millipore Sigma). A 150 μL aliquot from each well was added to 4 mL EcoLite(+)™ scintillation fluid (MP Biomedicals) and radioactivity was determined by scintillation spectrometry. Inhibition by each test solution was calculated as a percentage of the maximum control uptake. CHC and dimethylsulfoxide (DMSO) were used as controls. […]

MDA-MB-231 cells = experiment: SRB cell proliferation inhibition assay, MDA-MB-231; type: cell-based; details: Homo sapiens, 72 hours, average ± sem
Description: (§3) MDA-MB-231 cells (ATCC, 2015) were grown in DMEM supplemented with 10% FBS and penicillin-streptomycin (50 U/ml, 50 μg/ml, Invitrogen). WiDr cells (ATCC, 2017) were cultured in MEM medium supplemented with 10% FBS (Atlanta Biologicals) and penicillin-streptomycin (50 U/ml, 50 μg/ml). For in vitro experiments, after seeding, cells were incubated at 37°C in 5% CO2 for 18–24 hours before the addition of test compounds.
(§4) Cells (5 × 10^4 cells/mL) were cultured in 48-well plates. Test compounds were dissolved in DMSO (final concentration of DMSO is <0.1%) and were added to culture wells at various concentrations in replicate and incubated for 72 hours. Growth medium was removed and the wells were washed with PBS and dried. SRB (0.5% in 1% acetic acid) was added to the wells and incubated for 30–45 minutes. The wells were washed 3 times with 1% acetic acid and dried. The cellular protein was dissolved in trizma base (10 mM, pH 10.2) and absorbance was recorded at 540 nm. Percent survival was calculated using the formula %Survival=Abstest compound/Abscontrol×100 .

WiDr cells = experiment: SRB cell proliferation inhibition assay, WiDr; type: cell-based; details: Homo sapiens, 72 hours, average ± sem
Description: as §3, §4

MCT1 = details: RBE4 cells, cited from earlier work
[5] = system: MDA-MB-231 tumor xenograft; experiment: Tumor growth inhibition, MDA-MB-231 xenograft model; type: in vivo; details: SCID mice
Description: Figure 6 In vivo xenograft studies in WiDr and MDA-MB-231 tumor models (A) WiDr tumor xenograft study of compound 3 and compound 9. Mice (n = 8) were treated with 8 mg/kg of compound 3, intraperitoneally, two times a day. (B) Tumor growth inhibition study with compound 9 in MDA-MB-231 tumor xenograft model (n = 6). Mice were treated with compound 9 (70 mg/kg, ip, bid until day-4; qd from day-5), a combination of 9 and doxorubicin (0.5 mg/kg, ip, five days a week), and doxorubicin. (C) Tumor growth inhibition based on isolated tumor mass. ^*P < 0.05, ^**P < 0.01, ^***P < 0.001, ^****P < 0.0001. Schematic representation of (D) untreated tumor cells and (E) inhibition of MCT1 and MCT4 and decreased glycolysis and mitochondrial OxPhos in compound 9 treated tumor cells. Upward hollowed arrow indicates “increase” in function/amount and downward hollowed arrow indicates “decrease” in function/amount.
Group-1 was administered with compound 9, group-2 was given a combination of compound 9 and clinical breast cancer drug doxorubicin (AKSci catalog # E518), and group-3 was treated with doxorubicin alone. Group-4 was assigned as a control group and treated with vehicle (10% DMSO in saline). The treatment was continued up to 18 days and on day 20, the mice were euthanized and tumor masses isolated and weighed. […] Due to these reasons, higher dosages of compound 9 were required to produce significant anticancer efficacy in vivo. In all these studies, <20% of body weight loss was observed.
Tumor cells suspended in 1:1 matrigel-PBS were injected on right flank of female SCID mice (n = 6 mice/group, 10^7 MDA-MB-231 cells) or right flank of female athymic nude mice (n = 8 mice/group, 5 × 10^6 WiDr cells). Tumors were measured using calipers every 2–3 days and tumor volumes were calculated using the formula V = ab^2/2 where ‘a’ is the long diameter of the tumor and ‘b’ is the short diameter of the tumor. Tumor growth inhibition was determined using the formula % inhibition = [(C – T)/C] × 100 where C is average tumor weight of the control group and T is the average tumor weight of the test group.

[6] = Supplementary Table 1, average ± SEM, read-out: MCT4 IC50
[7] = Supplementary Table 1, average ± SEM

SMILES: Cc1[nH]nc(C(F)(F)F)c1Cc1sc2c(c1C(=O)N1C[C@](C)(O)CO1)c(=O)n(C)c(=O)n2C(C)C [AZD3965, reference compound]
glycolytic capacity (GST, ECAR) [1]: decreased
glycolytic reserve (GST, ECAR) [1]: decreased
glycolysis (GST, ECAR) [2]: did not show any glycolysis inhibition
glycolytic capacity (GST, ECAR) [2]: decreased glycolytic capacity only in WiDr
glycolytic reserve (GST, ECAR) [2]: decreased glycolytic reserve only in MCT1 expressing WiDr
ATP production (MST, OCR) [3]: did not affect
maximal respiration (MST, OCR) [3]: did not affect
proton leak (MST, OCR) [3]: did not affect
spare respiratory capacity (MST, OCR) [3]: did not affect
ATP production (MST, OCR) [4]: did not affect
maximal respiration (MST, OCR) [4]: did not affect
proton leak (MST, OCR) [4]: did not affect
spare respiratory capacity (MST, OCR) [4]: did not affect

SMILES: C=CCN(CC=C)c1ccc(/C=C(\C#N)C(=O)O)c(OC)c1 [Allyl (2)]
IC50 (MCT4; Figure 1A and text, lactate uptake, read-out: MCT4 IC50): 0.028 µM
IC50 (MCT4; [6]): 0.024 ± 0.006 µM
IC50 (MDA-MB-231 cells): > 25 µM
IC50 (WiDr cells): > 25 µM
IC50 (MCT1; [7]): 0.029 ± 0.002 µM

SMILES: N#CC(=Cc1ccc(O)cc1)C(=O)O [CHC, α-cyano-4-hydroxy cinnamic acid, reference compound]
IC50 (MCT4; MCT4 IC50, CHC, lactate uptake): ≥ 150 µM
glycolysis (GST, ECAR) [1]: did not affect
glycolytic capacity (GST, ECAR) [1]: did not affect
glycolytic reserve (GST, ECAR) [1]: decreased
glycolysis (GST, ECAR) [2]: did not affect
glycolytic capacity (GST, ECAR) [2]: did not affect
glycolytic reserve (GST, ECAR) [2]: decreased glycolytic reserve only in MCT1 expressing WiDr
ATP production (MST, OCR) [3]: did not affect
maximal respiration (MST, OCR) [3]: did not affect
proton leak (MST, OCR) [3]: did not affect
spare respiratory capacity (MST, OCR) [3]: did not affect
ATP production (MST, OCR) [4]: did not affect
maximal respiration (MST, OCR) [4]: did not affect
proton leak (MST, OCR) [4]: did not affect
spare respiratory capacity (MST, OCR) [4]: did not affect
IC50 (MCT1; CHC, lactate uptake): ≥ 150 µM

SMILES: CCCCCN(CCCCC)c1ccc(/C=C(\C#N)C(=O)O)c(OC)c1 [Pentyl (5)]
IC50 (MCT4; [6]): 0.085 ± 0.008 µM
IC50 (MDA-MB-231 cells): > 25 µM
IC50 (WiDr cells): > 25 µM
IC50 (MCT1; [7]): 0.034 ± 0.007 µM

SMILES: COc1cc(N2CCCCC2)ccc1/C=C(\C#N)C(=O)O [Piperidinyl (7)]
IC50 (MCT4; [6]): 0.058 ± 0.013 µM
IC50 (MDA-MB-231 cells): > 25 µM
IC50 (WiDr cells): > 25 µM
IC50 (MCT1; [7]): 0.025 ± 0.005 µM

SMILES: COc1cc(N2CCCC2)ccc1/C=C(\C#N)C(=O)O [Pyrrolidinyl (6)]
IC50 (MDA-MB-231 cells): > 25 µM
IC50 (WiDr cells): > 25 µM

SMILES: COc1cccc2c1C(=O)c1c(O)c3c(c(O)c1C2=O)C[C@@](O)(C(=O)CO)C[C@@H]3O[C@H]1C[C@H](N)[C@H](O)[C@H](C)O1 [doxorubicin, reference compound]
tumor growth inhibition based on tumor volume ([5]; 9 70 mg/kg ip bid until day-4, qd from day-5, doxorubicin 0.5 mg/kg ip five days a week, treatment up to 18 days): 48%
tumor growth inhibition based on isolated tumor weights ([5]; same regimens, tumors isolated on day 20): 52%

Continued, in another order:

IC50 (MCT4; [6]): 0.032 ± 0.003 µM
IC50 (MDA-MB-231 cells): > 25 µM
SMILES: COc1cc(N(Cc2ccccc2)Cc2ccccc2)ccc1/C=C(\C#N)C(=O)O [Benzyl (8)]
IC50 (WiDr cells): > 25 µM
IC50 (MCT1; Figure 1A and text, lactate uptake): 0.037 µM
IC50 (MCT1; [7]): 0.025 ± 0.003 µM

IC50 (MCT4; [6]): 0.014 ± 0.002 µM
IC50 (MDA-MB-231 cells): > 25 µM
SMILES: CCCCN(CCCC)c1ccc(/C=C(\C#N)C(=O)O)c(OC)c1 [Butyl (3)]
IC50 (WiDr cells): > 25 µM
glycolytic capacity (GST, ECAR) [1]: significant decrease
glycolytic reserve (GST, ECAR) [1]: significant decrease
ATP production (MST, OCR) [3]: decreased
maximal respiration (MST, OCR) [3]: decreased
spare respiratory capacity (MST, OCR) [3]: decreased
ATP production (MST, OCR) [4]: decreased
maximal respiration (MST, OCR) [4]: decreased
spare respiratory capacity (MST, OCR) [4]: decreased

IC50 (MCT4; [6]): 0.017 ± 0.002 µM
IC50 (MDA-MB-231 cells): > 25 µM
SMILES: COc1cc(N(CC(C)C)CC(C)C)ccc1/C=C(\C#N)C(=O)O [Isobutyl (4)]
IC50 (WiDr cells): > 25 µM
IC50 (MCT1; [7]): 0.011 ± 0.004 µM

IC50 (MCT4; [6]): 0.011 ± 0.001 µM
IC50 (MDA-MB-231 cells): > 25 µM
SMILES: CCCN(CCC)c1ccc(/C=C(\C#N)C(=O)O)c(OC)c1 [Propyl (1)]
IC50 (WiDr cells): > 25 µM
IC50 (MCT1; [7]): 0.012 ± 0.001 µM
